According to article PMC6081452, “Downstream Products are Potent Inhibitors of the Heparan Sulfate 2-O-Sulfotransferase” (Scientific Reports, 2018):
Substitutions are numbered along the chain they refer to.

Tests used:
non-glyc-HS2ST H142K = target: T1, non-glyc-HS2ST H142K (Gallus gallus, UniProt Q76KB1, H142K); experiment: BLI equilibrium binding, non-glyc-HS2ST H142K; design: species or system chicken; details: BLI saturation binding curves, n = 3, ± standard error of fit
T1 construct: made in house; host or cells: E. coli Origami B (DE3)
T1 sequence (Q76KB1 69-356 H142K limits assumed): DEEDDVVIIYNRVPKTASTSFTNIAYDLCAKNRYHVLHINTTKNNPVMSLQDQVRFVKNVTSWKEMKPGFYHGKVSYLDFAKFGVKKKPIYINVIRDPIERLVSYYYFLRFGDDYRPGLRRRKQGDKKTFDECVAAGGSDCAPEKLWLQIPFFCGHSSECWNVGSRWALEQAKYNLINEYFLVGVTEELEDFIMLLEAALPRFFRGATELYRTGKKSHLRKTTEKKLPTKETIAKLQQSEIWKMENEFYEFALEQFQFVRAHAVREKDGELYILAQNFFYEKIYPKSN
Text: (§1) To assess whether the inhibitory compounds interact with the active site, point mutations were introduced in non-glyc-HS2ST (Fig. 4a). Four mutants of the catalytic residue (H142A/E/R/K) were created, along with a mutation of the residue that facilitates 2-O-sulfation of IdoA residues (R189A)[27]. Additionally, a negative control (NC) was generated containing multiple mutations of positively charged residues (R189A, R80E, and R184E) that reduced the net charge of each protein monomer by 5. The extent that the mutations affected affinity provided an indication that the ligand had been bound in the active site (Table 1 and Supplementary Fig. 1). While R189A markedly diminished the affinity for all compounds, the NC mutations reduced affinity to immeasurable levels. Removal of the catalytic side chain (H142A) enhanced the affinity of each compound, compared to the WT, by approximately 2–3-fold. Addition of a positive charge at this location (H142K/R) further enhanced the affinity for each compound, so much so that a KD value could be measured even for 2. The H142E mutation diminished the affinity of 5 by half compared to WT, but its effects were less significant for binding to 3 or 4.
(§2) The chicken HS2ST-Maltose Binding Protein (MBP) fusion protein was expressed and purified according to previous studies. The fusion protein was transformed into E. coli Origami B (DE3) cells, cultured at 37 °C until OD600 reached 0.5, then induced with isopropyl-β-D-thiogalactopyranoside and allowed to grow overnight at 20 °C. Cells were sonicated, followed by a two-step purification procedure. Whole-cell supernatant was passed through an amylose column with Tris buffer (25 mM Tris, 500 mM NaCl, pH 7.5). An elution buffer consisted of Tris Buffer with 40 mM Maltose. The amylose column eluent was concentrated and loaded on a Superdex 200 Increase 10/300 GL with PBS buffer (10 mM sodium phosphate, 150 mM NaCl, pH 7.8) to separate trimeric protein from aggregate and independent MBP (Supplementary Fig. 4). All reported mutations formed homotrimeric complexes according to the SEC profiles, including the negative control (NC = R189A/R80E/R184E). Protein concentration was assessed via UV at 280 nm (MW of trimer ~210 KDa, extinction coefficient ~119,000 M^−1 cm^−1 according to ExPASy ProtParam webtool[56]). The trimeric protein preparation was adjusted to 5% glycerol and stored at −20 °C until use. Additional non-glyc-HS2ST constructs were created with the Q5® Mutagenesis kit (New England Biolabs Inc.; cat. # E0554S) and sequenced at the Georgia Genomics Facility at the University of Georgia.
(§3) The Octet® RED96 system (FortéBio Inc.) was employed to detect the affinity of the enzymes for specific HS targets. […]

non-glyc-HS2ST H142R = target: T2, non-glyc-HS2ST H142R (Gallus gallus, UniProt Q76KB1, H142R); experiment: BLI equilibrium binding, non-glyc-HS2ST H142R; design: species or system chicken; details: BLI saturation binding curves, n = 3, ± standard error of fit
T2 construct: made in house; host or cells: E. coli Origami B (DE3)
T2 sequence (Q76KB1 69-356 H142R limits assumed): T1 sequence (Q76KB1 69-356 H142K limits assumed) with K74R
Text: as §1, §2, §3

Kd (non-glyc-HS2ST H142K) [nM]	Kd (non-glyc-HS2ST H142R) [nM]	Substance
11 ± 2	10 ± 1	GlcNS6S-GlcA-GlcNS3S6S-IdoA2S-GlcNS6S-GlcA~ [Compound 4]
22 ± 2	13 ± 1	GlcNS6S-GlcA-GlcNS6S-GlcA-GlcNS6S-GlcA~ [Compound 5]
15 ± 2	12 ± 1	GlcNS6S-GlcA-GlcNS6S-IdoA2S-GlcNS6S-GlcA~ [Compound 3]
198 ± 34	136 ± 20	GlcNS-GlcA-GlcNS-IdoA2S-GlcNS-GlcA~ [Compound 2]
